Measured values reported in US8247211B2, “Glycopeptide antibiotics” (American Cyanamid Company, priority 2001, dated 2012).

What was measured:
Enterococcus sp. = assay: In vitro antibacterial evaluation: minimum inhibitory concentration (MIC), broth dilution method; format: cell-based; settings: broth dilution, 5×10^5 CFU/mL, 18 hours at 35° C.
In short: (§1)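 First, organisms are seeded at 5×10^5 CFU/mL into Muller-Hinton II […]. Next, antibiotic is applied across 64-0.06 μg/mL by broth dilution (NCCLS M7-A2). Finally, the lowest inhibitory concentration is recorded as MIC.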

Escherichia coli = assay: as above; format: cell-based; settings: 5×10^5 CFU/mL, 18 hours at 35° C.
In short: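 NCCLS M7-A2 broth dilution with Mueller-Hinton II, testing 64-0.06 μg/mL antibiotic against 5×10^5 CFU/mL inocula. Test strains include recent methicillin-, penicillin- or vancomycin-resistant clinical isolates. MIC is the lowest concentration preventing growth.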

Streptococcus sp. = assay: as above; format: cell-based; settings: broth dilution, 5×10^5 CFU/mL, 18 hours at 35° C.
In short: as §1

Staphylococcus sp. = assay: as above; format: cell-based; settings: for MIC Staphylococcus aureus (ATCC 29213): strain ATCC 29213; for MIC Staphylococcus aureus (GC 1131): strain GC 1131; for MIC Staphylococcus aureus (GC 3051): strain GC 3051; for MIC Staphylococcus aureus (GC 3053): strain GC 3053; for MIC Staphylococcus aureus (GC 4541): strain GC 4541; for MIC Staphylococcus aureus (GC 4542): strain GC 4542; for MIC Staphylococcus aureus-SMITH (GC 4543): strain GC 4543; for MIC Staphylococcus aureus (GC 4544): strain GC 4544; for MIC Staphylococcus aureus (GC 4545): strain GC 4545; for MIC Staphylococcus haemolyticus (GC 4546): strain GC 4546; for MIC Coagulase Negative Staphylococcus (GC 4547): strain GC 4547; for MIC Coagulase Negative Staphylococcus (GC 4548): strain GC 4548; for MIC Coagulase Negative Staphylococcus (GC 4549): strain GC 4549; for MIC Coagulase Negative Staphylococcus (GC 4551): strain GC 4551; for MIC Coagulase Negative Staphylococcus (GC 6257): strain GC 6257
In short: as §1

[1] = tested on: Enterococcus faecalis (GC 6189), vancomycin resistant strain; assay: Acute lethal infection in mice (ED50); format: in vivo; settings: female CD-1 mice, intraperitoneal challenge, intravenous dose 30 min. after infection, 7 day survival ratios
In short: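 Female CD-1 mice challenged intraperitoneally with a bacterial dose lethal to untreated controls within 24-48 h. Compound given intravenously in saline or 5% dextrose 30 min post-infection, five mice per dose; ED50 from 7-day survival pooled over 3 tests.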

[2] = broth dilution, 18 hours at 35° C.

CC(c1ccccc1)C1NC(=O)CNC(=O)C(CO)NC(=O)C(C(O)C2CNC(=N)N2C2OC(CO)C(O)C(O)C2O)NC(=O)C(C(O)C2CNC(=N)N2)NC(=O)C(Cc2ccc(OC3OC(CO)C(OC4OC5COC(C6CCCC6)OC5C(O)C4O)C(O)C3O)cc2)NC1=O (stereo not drawn) [Example 117, Cyclo[glycyl-β-methylphenylalanyl-O-[4-O-[4,6-O-(cyclopentylethylene)hexopyranosyl]-hexopyranosyl]tyrosyl-3-(2-iminoimidazolidin-4-yl)seryl-3-(3-hexopyranosyl-2-iminoimidazolidin-4-yl)serylseryl]]
64 µg/mL: MIC Escherichia coli (ATCC 25922) (Escherichia coli)
2 µg/mL: MIC Enterococccus faecalis (ATCC 29212) (Enterococcus sp.) | MIC Enterococccus faecalis (GC 4554) (Enterococcus sp.) | MIC Enterococccus faecalis (GC 6189) (Enterococcus sp.) | MIC Enterococccus faecium (GC 2243) (Enterococcus sp.) | MIC Enterococccus faecium (GC 4556) (Enterococcus sp.) | MIC Enterococccus faecium (GC 4557) (Enterococcus sp.) | MIC Enterococcus faecalis (GC 2242) (Enterococcus sp.) | MIC Staphylococcus aureus (GC 1131) (Staphylococcus sp.) | MIC Staphylococcus aureus (GC 1131) (Staphylococcus sp.; [2]) | MIC Staphylococcus aureus (GC 3053) (Staphylococcus sp.) | MIC Staphylococcus aureus (GC 3053) (Staphylococcus sp.; [2]) | MIC Staphylococcus aureus (GC 4544) (Staphylococcus sp.) | MIC Staphylococcus aureus (GC 4544) (Staphylococcus sp.; [2]) | MIC Coagulase Negative Staphylococcus (GC 4551) (Staphylococcus sp.) | MIC Coagulase Negative Staphylococcus (GC 4551) (Staphylococcus sp.; [2])
0.5 µg/mL: MIC Coagulase Negative Staphylococcus (GC 6257) (Staphylococcus sp.) | MIC Coagulase Negative Staphylococcus (GC 6257) (Staphylococcus sp.; [2])
0.25 µg/mL: MIC Streptococcus agalactiae (GC 4564) (Streptococcus sp.) | MIC Streptococcus pyogenes (GC 4563) (Streptococcus sp.)
0.12 µg/mL: MIC Streptococcus pneumoniae (GC 4565) (Streptococcus sp.)
<0.06 µg/mL: MIC Streptococcus pneumoniae (GC 1894) (Streptococcus sp.) | MIC Streptococcus pneumonine (ATCC 6301) (Streptococcus sp.)
0.38 mg/kg: median effective dose (ED50), Enterococcus faecalis (GC 6189) [1]
32 µg/mL: MIC Escherichia coli (GC 4559) (Escherichia coli)
1 µg/mL: MIC Escherichia coli (GC 4560) (Escherichia coli) | MIC Staphylococcus aureus (ATCC 29213) (Staphylococcus sp.) | MIC Staphylococcus aureus (ATCC 29213) (Staphylococcus sp.; [2]) | MIC Staphylococcus aureus (GC 3051) (Staphylococcus sp.) | MIC Staphylococcus aureus (GC 3051) (Staphylococcus sp.; [2]) | MIC Staphylococcus aureus (GC 4541) (Staphylococcus sp.) | MIC Staphylococcus aureus (GC 4541) (Staphylococcus sp.; [2]) | MIC Staphylococcus aureus (GC 4542) (Staphylococcus sp.) | MIC Staphylococcus aureus (GC 4542) (Staphylococcus sp.; [2]) | MIC Staphylococcus aureus-SMITH (GC 4543) (Staphylococcus sp.; 18 hours at 35° C.) | MIC Staphylococcus aureus-SMITH (GC 4543) (Staphylococcus sp.; [2]) | MIC Staphylococcus aureus (GC 4545) (Staphylococcus sp.) | MIC Staphylococcus aureus (GC 4545) (Staphylococcus sp.; [2]) | MIC Staphylococcus haemolyticus (GC 4546) (Staphylococcus sp.) | MIC Staphylococcus haemolyticus (GC 4546) (Staphylococcus sp.; [2]) | MIC Coagulase Negative Staphylococcus (GC 4547) (Staphylococcus sp.) | MIC Coagulase Negative Staphylococcus (GC 4547) (Staphylococcus sp.; [2]) | MIC Coagulase Negative Staphylococcus (GC 4548) (Staphylococcus sp.) | MIC Coagulase Negative Staphylococcus (GC 4548) (Staphylococcus sp.; [2]) | MIC Coagulase Negative Staphylococcus (GC 4549) (Staphylococcus sp.) | MIC Coagulase Negative Staphylococcus (GC 4549) (Staphylococcus sp.; [2])
4 µg/mL: MIC Enterococccus avium (GC 4558) (Enterococcus sp.) | MIC Enterococccus faecalis (GC 2691) (Enterococcus sp.) | MIC Enterococccus faecalis (GC 3059) (Enterococcus sp.) | MIC Enterococccus faecalis (GC 4552) (Enterococcus sp.) | MIC Enterococccus faecalis (GC 4553) (Enterococcus sp.)
